Counter-ions that a name gives are not always drawn.
Tested on: Yoshida tumour
Assay: Chemopreventive effects on Yoshida tumour inoculation and thriving
Assay type: in vivo, Sprague-Dowley rats
Details: for animals showing ascites: day 8 after inoculation
Experimental: In order to elucidate the actual chemoprevention antitumour Potentialities of L-aC, 125 Sprague-Dowley rats (4 months old, mean weight: 200 g), under standard feeding and temperature conditions (25° C.), were divided in 5 groups and treated as follows:
Group 1: 25 rats were intraperitoneally treated, on alternate days for 10 days, with 25 mg of L-aC diluted in 5 ml of saline solution. On day 10 they were inoculated with Yoshida tumour.
Group 2: 25 rats were intraperitoneally treated, on alternate days for 10 days, with 25 mg of L-aC diluted in 5 ml of saline solution. On day 10 they were inoculated with Yoshida tumour. Starting from day 11, they were further treated intraperitoneally, on alternate days, with 25 mg of L-aC diluted in 5 ml of saline solution, for a further 10 days.
Group 3: 25 previously untreated rats were inoculated, on day 10, with Yoshida tumour. Starting from day 14 they were intraperitoneally treated, on alternate days, with 25 mg of L-aC diluted in 5 ml of saline solution for 10 days.
Group 4: 25 previously untreated rats were inoculated on day 10 with Yoshida tumour. On day 18 to 24 they were intraperitoneally treated, on alternate days, with 25 mg of L-aC diluted in 5 ml of saline solution for 10 days.
Group 5: 25 previously untreated rats were inoculated on day 10 with Yoshida tumour. On day 18 to 24 they were subjected to emptying, on alternate days, of 5 ml of ascitic fluid which was substituted with 50 mg of L-aC diluted in 5 ml of saline solution.
The onset and evolution of the tumour were checked by daily observation and weighing.

SMILES: CC(=O)OC(CC(=O)[O-])C[N+](C)(C)C [L-aC, L-acetylcarnitine hydrochloride]
- necroscopy finding (6 animals sacrified at end of observation): no presence of the disease
- animals showing ascites (Group 1 (25 mg L-aC i.p. alternate days 10 days before inoculation)): 4/25
- surviving animals (Group 1, 25 mg L-aC i.p. alternate days for 10 days, inoculated day 10, day 01 of observation): 25
- surviving animals (Group 1, 25 mg L-aC i.p. alternate days for 10 days, inoculated day 10, day 03): 25
- surviving animals (Group 1, 25 mg L-aC i.p. alternate days for 10 days, inoculated day 10, day 05): 25
- surviving animals (Group 1, 25 mg L-aC i.p. alternate days for 10 days, inoculated day 10, day 07): 25
- surviving animals (Group 1, 25 mg L-aC i.p. alternate days for 10 days, inoculated day 10, day 09): 25
- surviving animals (Group 1, 25 mg L-aC i.p. alternate days for 10 days, inoculated day 10, day 10): 25
- surviving animals (Group 1, 25 mg L-aC i.p. alternate days for 10 days, inoculated day 10, day 11): 25
- surviving animals (Group 1, 25 mg L-aC i.p. alternate days for 10 days, inoculated day 10, day 14): 25
- surviving animals (Group 1, 25 mg L-aC i.p. alternate days for 10 days, inoculated day 10, day 18): 25
- surviving animals (Group 1, 25 mg L-aC i.p. alternate days for 10 days, inoculated day 10, day 21): 20
- surviving animals (Group 1, 25 mg L-aC i.p. alternate days for 10 days, inoculated day 10, day 24): 15
- surviving animals (Group 1, 25 mg L-aC i.p. alternate days for 10 days, inoculated day 10, day 27): 13
- surviving animals (Group 1, 25 mg L-aC i.p. alternate days for 10 days, inoculated day 10, day 30): 13
- surviving animals (Group 1, 25 mg L-aC i.p. alternate days for 10 days, inoculated day 10, day 45): 13
- animals free from the disease and still alive (Group 1, of 21 ascites-free animals, day 27 of observation): 13
- animals with late ascites that died (Group 1, of 21 ascites-free animals, within day 27 of observation): 8
- day of observation by which ascitic animals died (Group 1, the 4 animals with ascites): ≤ 26 days
- animals showing ascites (Group 2 (25 mg L-aC i.p. alternate days 10 days before and 10 days after inoculation)): 5/25
- surviving animals (Group 2, 25 mg L-aC i.p. alternate days 10 days before and 10 days after inoculation (day 10), day 01 of observation): 25
- surviving animals (Group 2, 25 mg L-aC i.p. alternate days 10 days before and 10 days after inoculation (day 10), day 03): 25
- surviving animals (Group 2, 25 mg L-aC i.p. alternate days 10 days before and 10 days after inoculation (day 10), day 05): 25
- surviving animals (Group 2, 25 mg L-aC i.p. alternate days 10 days before and 10 days after inoculation (day 10), day 07): 25
- surviving animals (Group 2, 25 mg L-aC i.p. alternate days 10 days before and 10 days after inoculation (day 10), day 09): 25
- surviving animals (Group 2, 25 mg L-aC i.p. alternate days 10 days before and 10 days after inoculation (day 10), day 10): 25
- surviving animals (Group 2, 25 mg L-aC i.p. alternate days 10 days before and 10 days after inoculation (day 10), day 11): 25
- surviving animals (Group 2, 25 mg L-aC i.p. alternate days 10 days before and 10 days after inoculation (day 10), day 14): 25
- surviving animals (Group 2, 25 mg L-aC i.p. alternate days 10 days before and 10 days after inoculation (day 10), day 18): 25
- surviving animals (Group 2, 25 mg L-aC i.p. alternate days 10 days before and 10 days after inoculation (day 10), day 21): 21
- surviving animals (Group 2, 25 mg L-aC i.p. alternate days 10 days before and 10 days after inoculation (day 10), day 24): 21
- surviving animals (Group 2, 25 mg L-aC i.p. alternate days 10 days before and 10 days after inoculation (day 10), day 27): 21
- surviving animals (Group 2, 25 mg L-aC i.p. alternate days 10 days before and 10 days after inoculation (day 10), day 30): 21
- surviving animals (Group 2, 25 mg L-aC i.p. alternate days 10 days before and 10 days after inoculation (day 10), day 45): 21
- animals free from the disease and still alive (Group 2, of 20 ascites-free animals, day 27 of observation): 18
- animals with late ascites that died (Group 2, of 20 ascites-free animals, within day 27): 2
- animals still alive with markedly low or even no ascites (Group 2, day 27 of observation): 3
- animals still alive (Group 3 (25 mg L-aC i.p. alternate days from day 14, inoculated day 10), day 27 of observation): 16/25
- surviving animals (Group 3, inoculated day 10, 25 mg L-aC i.p. alternate days from day 14 for 10 days, day 01 of observation): 25
- surviving animals (Group 3, inoculated day 10, 25 mg L-aC i.p. alternate days from day 14 for 10 days, day 03): 25
- surviving animals (Group 3, inoculated day 10, 25 mg L-aC i.p. alternate days from day 14 for 10 days, day 05): 25
- surviving animals (Group 3, inoculated day 10, 25 mg L-aC i.p. alternate days from day 14 for 10 days, day 07): 25
- surviving animals (Group 3, inoculated day 10, 25 mg L-aC i.p. alternate days from day 14 for 10 days, day 09): 25
- surviving animals (Group 3, inoculated day 10, 25 mg L-aC i.p. alternate days from day 14 for 10 days, day 10): 25
- surviving animals (Group 3, inoculated day 10, 25 mg L-aC i.p. alternate days from day 14 for 10 days, day 11): 25
- surviving animals (Group 3, inoculated day 10, 25 mg L-aC i.p. alternate days from day 14 for 10 days, day 14): 25
- surviving animals (Group 3, inoculated day 10, 25 mg L-aC i.p. alternate days from day 14 for 10 days, day 18): 25
- surviving animals (Group 3, inoculated day 10, 25 mg L-aC i.p. alternate days from day 14 for 10 days, day 21): 20
- surviving animals (Group 3, inoculated day 10, 25 mg L-aC i.p. alternate days from day 14 for 10 days, day 24): 18
